Patent publication US11753407B2, “Compounds for treating spinal muscular atrophy” (PTC Therapeutics, Inc., priority 2012, dated 2023)

Experiments:
[1] = test system: SMN2 minigene mRNA (SMN2-A minigene) in HEK293H cells; assay: SMN2 minigene mRNA splicing RT-qPCR assay in cultured cells; type: cell-based, human; conditions: Homo sapiens, HEK293-H; concentration increasing full length SMN2 mRNA 1.5-fold relative to vehicle-treated cells; HEK293H cells with SMN2-A minigene, 24 hours, 7-point concentration data; read-out: EC1.5x for production of full length SMN2 mRNA
Procedure, shortened: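 HEK293H cells stably carrying the SMN2-A minigene were treated for 24 h at 37 °C with a 7-point, 3.16-fold dilution series of compound. Multiplex RT-qPCR measured exon 7-containing minigene FL mRNA against GAPDH, expressed relative to vehicle by modified ΔΔCt; the EC1.5× is the concentration giving a 1.5-fold increase.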

[2] = test system: Smn protein in SMA patient fibroblast cells (GM03813); assay: Smn protein assay in cultured cells (SMN HTRF); type: cell-based, human; conditions: SMA patient fibroblast cells, 48 hours; for EC1.5x for Smn protein expression: 7-point concentration curve, SMN HTRF, concentration producing 1.5 times Smn protein vs DMSO vehicle control; for maximum fold (Fold) increase of Smn protein: 7-point concentration data, fold relative to vehicle control
Procedure, shortened: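 SMA patient fibroblasts (5,000 cells/well, DMEM-10% FBS) were treated for 48 h at 37 °C with a 7-point, 3.16-fold dilution series in triplicate. RIPA lysates were probed by HTRF (anti-SMN d2/kryptate, overnight, room temperature), reading 665/620 nm. EC1.5× is the concentration giving 1.5-fold Smn over DMSO vehicle.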

For `Cc1cn2cc(-c3ccc4nc(C5CCN(C)CC5)cc(=O)n4c3)ccc2n1` [Compound 460, 7-(2-methylimidazo[1,2-a]pyridin-6-yl)-2-(1-methylpiperidin-4-yl)-4H-pyrido[1,2-a]pyrimidin-4-one], the EC (1.5-fold increase) [1] was 0.1 to 0.3 µM, the “EC1.5x for Smn protein expression” value [2] was “*** (an EC1.5× between >0.3 μM and ≤1 μM is indicated by three stars (***))” and the “maximum fold (Fold) increase of Smn protein” value (“maximum fold (Fold) increase” for short) [2] was “**** (a fold increase between >1.5 and ≤1.65 is indicated by four stars (****))”. The melting point was 227 to 230 °C.

In the case of `Cc1cn2cc(-c3ccc4nc(C5CCN(C(C)C)CC5)cc(=O)n4c3)ccc2n1` [Compound 461, 7-(2-methylimidazo[1,2-a]pyridin-6-yl)-2-[1-(propan-2-yl)piperidin-4-yl]-4H-pyrido[1,2-a]pyrimidin-4-one], the EC (1.5-fold increase) [1] is reported as 0.3 to 1 µM, the “EC1.5x for Smn protein expression” value [2] is reported as “** (an EC1.5× between >1 μM and ≤3 μM is indicated by two stars (**))” and the “maximum fold (Fold) increase” value [2] is reported as “**** (a fold increase between >1.5 and ≤1.65 is indicated by four stars (****))”. For the same compound, the melting point was 215 to 218 °C.

For `Cc1cn2cc(-c3ccc4nc(C5CCN(C)CC5)cc(=O)n4c3)cc(F)c2n1` [Compound 462, 7-(8-fluoro-2-methylimidazo[1,2-a]pyridin-6-yl)-2-(1-methylpiperidin-4-yl)-4H-pyrido[1,2-a]pyrimidin-4-one], the EC (1.5-fold increase) [1] was under 0.1 µM, the “EC1.5x for Smn protein expression” value [2] was “**** (an EC1.5x≤0.3 μM is indicated by four stars (****))” and the “maximum fold (Fold) increase” value [2] was “***** (a fold increase >1.65 is indicated by five stars (*****))”. The melting point was 235 to 238 °C.

For `CCN1CC=C(c2ccc3nc(-c4ccc5c(cnn5C)c4)cc(=O)n3c2)CC1` [Compound 463, 7-(1-ethyl-1,2,3,6-tetrahydropyridin-4-yl)-2-(1-methyl-1H-indazol-5-yl)-4H-pyrido[1,2-a]pyrimidin-4-one], the EC (1.5-fold increase) [1] was under 0.1 µM, the “EC1.5x for Smn protein expression” value [2] was “*** (an EC1.5× between >0.3 μM and ≤1 μM is indicated by three stars (***))” and the “maximum fold (Fold) increase” value [2] was “***** (a fold increase >1.65 is indicated by five stars (*****))”. The melting point was 172 to 174 °C.

With `CCCN1CC=C(c2ccc3nc(-c4ccc5c(cnn5C)c4)cc(=O)n3c2)CC1` [Compound 464, 2-(1-methyl-1H-indazol-5-yl)-7-(1-propyl-1,2,3,6-tetrahydropyridin-4-yl)-4H-pyrido[1,2-a]pyrimidin-4-one] the EC (1.5-fold increase) [1] was 0.1 to 0.3 µM, the “EC1.5x for Smn protein expression” value [2] was “** (an EC1.5× between >1 μM and ≤3 μM is indicated by two stars (**))” and the “maximum fold (Fold) increase” value [2] was “**** (a fold increase between >1.5 and ≤1.65 is indicated by four stars (****))”. For the same compound, the melting point was 152 to 154 °C.

For `CN(C)c1ccc(-c2cc(=O)n3cc(C4CCNCC4)ccc3n2)cn1` [Compound 465, 2-[6-(dimethylamino)pyridin-3-yl]-7-(piperidin-4-yl)-4H-pyrido[1,2-a]pyrimidin-4-one], the EC (1.5-fold increase) [1] was 0.3 to 1 µM, the “maximum fold (Fold) increase” value [2] was “*** (a fold increase between >1.35 and ≤1.5 is indicated by three stars (***))” and the melting point was 208 to 210 °C.

In the case of `CCN1CCN(c2ccc3nc(-c4cc5cnc(C)cn5n4)cc(=O)n3c2)CC1` [Compound 466, 7-(4-ethylpiperazin-1-yl)-2-(6-methylpyrazolo[1,5-a]pyrazin-2-yl)-4H-pyrido[1,2-a]pyrimidin-4-one], the EC (1.5-fold increase) [1] is reported as under 0.1 µM, the “EC1.5x for Smn protein expression” value [2] is reported as “*** (an EC1.5× between >0.3 μM and ≤1 μM is indicated by three stars (***))” and the “maximum fold (Fold) increase” value [2] is reported as “***** (a fold increase >1.65 is indicated by five stars (*****))”. It also gave a melting point of 220 to 230 °C.

With `Cc1cn2nc(-c3cc(=O)n4cc(N5CCN6CCC[C@@H]6C5)ccc4n3)cc2cn1` [Compound 467, 7-[(8aR)-hexahydropyrrolo[1,2-a]pyrazin-2(1H)-yl]-2-(6-methylpyrazolo[1,5-a]pyrazin-2-yl)-4H-pyrido[1,2-a]pyrimidin-4-one] the EC (1.5-fold increase) [1] was under 0.1 µM, the “EC1.5x for Smn protein expression” value [2] was “**** (an EC1.5x≤0.3 μM is indicated by four stars (****))” and the “maximum fold (Fold) increase” value [2] was “***** (a fold increase >1.65 is indicated by five stars (*****))”. The melting point was 240 to 250 °C.

For `Cc1cn2nc(-c3cc(=O)n4cc(N5CCC(N(C)C)CC5)ccc4n3)cc2cn1` [Compound 468, 7-[4-(dimethylamino)piperidin-1-yl]-2-(6-methylpyrazolo[1,5-a]pyrazin-2-yl)-4H-pyrido[1,2-a]pyrimidin-4-one], the EC (1.5-fold increase) [1] was under 0.1 µM, the “EC1.5x for Smn protein expression” value [2] was “*** (an EC1.5× between >0.3 μM and ≤1 μM is indicated by three stars (***))” and the “maximum fold (Fold) increase” value [2] was “**** (a fold increase between >1.5 and ≤1.65 is indicated by four stars (****))”. The melting point was 240 to 242 °C.

With `Cc1cn2nc(-c3cc(=O)n4cc(N5CCN(CCO)CC5)ccc4n3)cc2cn1` [Compound 469, 7-[4-(2-hydroxyethyl)piperazin-1-yl]-2-(6-methylpyrazolo[1,5-a]pyrazin-2-yl)-4H-pyrido[1,2-a]pyrimidin-4-one] the EC (1.5-fold increase) [1] was 0.1 to 0.3 µM, the “EC1.5x for Smn protein expression” value [2] was “*** (an EC1.5× between >0.3 μM and ≤1 μM is indicated by three stars (***))” and the “maximum fold (Fold) increase” value [2] was “***** (a fold increase >1.65 is indicated by five stars (*****))”. For the same compound, the melting point was 254 to 256 °C.

With `CCCN1CCC(c2ccc3nc(-c4ccc5nc(C)cn5c4)cc(=O)n3c2)CC1` [Compound 470, 2-(2-methylimidazo[1,2-a]pyridin-6-yl)-7-(1-propylpiperidin-4-yl)-4H-pyrido[1,2-a]pyrimidin-4-one] the EC (1.5-fold increase) [1] was under 0.1 µM, the “EC1.5x for Smn protein expression” value [2] was “**** (an EC1.5x≤0.3 μM is indicated by four stars (****))” and the “maximum fold (Fold) increase” value [2] was “**** (a fold increase between >1.5 and ≤1.65 is indicated by four stars (****))”. The melting point was 159 to 161 °C.

With `Cc1cn2nc(-c3cc(=O)n4cc(N5CCN[C@H](C)C5)ccc4n3)cc2cn1` [Compound 472, 7-[(3R)-3-methylpiperazin-1-yl]-2-(6-methylpyrazolo[1,5-a]pyrazin-2-yl)-4H-pyrido[1,2-a]pyrimidin-4-one] the EC (1.5-fold increase) [1] was under 0.1 µM, the “EC1.5x for Smn protein expression” value [2] was “**** (an EC1.5x≤0.3 μM is indicated by four stars (****))” and the “maximum fold (Fold) increase” value [2] was “***** (a fold increase >1.65 is indicated by five stars (*****))”. The melting point was 240 to 244 °C.

For `Cc1cn2nc(-c3cc(=O)n4cc(C5=CCNCC5)ccc4n3)cc2cn1` [Compound 473, 2-(6-methylpyrazolo[1,5-a]pyrazin-2-yl)-7-(1,2,3,6-tetrahydropyridin-4-yl)-4H-pyrido[1,2-a]pyrimidin-4-one], the EC (1.5-fold increase) [1] was under 0.1 µM, the “EC1.5x for Smn protein expression” value [2] was “**** (an EC1.5x≤0.3 μM is indicated by four stars (****))” and the “maximum fold (Fold) increase” value [2] was “***** (a fold increase >1.65 is indicated by five stars (*****))”. For the same compound, the melting point was 260 to 265 °C.

With `Cn1cc2cc(-c3cc(=O)n4cc(C5=CCNCC5)ccc4n3)ccc2n1` [Compound 474, 2-(2-methyl-2H-indazol-5-yl)-7-(1,2,3,6-tetrahydropyridin-4-yl)-4H-pyrido[1,2-a]pyrimidin-4-one] the EC (1.5-fold increase) [1] was under 0.1 µM, the “EC1.5x for Smn protein expression” value [2] was “**** (an EC1.5x≤0.3 μM is indicated by four stars (****))” and the “maximum fold (Fold) increase” value [2] was “**** (a fold increase between >1.5 and ≤1.65 is indicated by four stars (****))”. It also gave a melting point of 239 to 241 °C.

In the case of `CN1CCC(c2ccc3nc(-c4ccc5c(cnn5C)c4)cc(=O)n3c2)CC1` [Compound 475, 2-(1-methyl-1H-indazol-5-yl)-7-(1-methylpiperidin-4-yl)-4H-pyrido[1,2-a]pyrimidin-4-one], the EC (1.5-fold increase) [1] is reported as 0.3 to 1 µM, the “EC1.5x for Smn protein expression” value [2] is reported as “** (an EC1.5× between >1 μM and ≤3 μM is indicated by two stars (**))” and the “maximum fold (Fold) increase” value [2] is reported as “*** (a fold increase between >1.35 and ≤1.5 is indicated by three stars (***))”. It also gave a melting point of 216 to 218 °C.

In the case of `CN1CC=C(c2ccc3nc(-c4ccc5nn(C)cc5c4)cc(=O)n3c2)CC1` [Compound 476, 2-(2-methyl-2H-indazol-5-yl)-7-(1-methyl-1,2,3,6-tetrahydropyridin-4-yl)-4H-pyrido[1,2-a]pyrimidin-4-one], the EC (1.5-fold increase) [1] is reported as under 0.1 µM, the “EC1.5x for Smn protein expression” value [2] is reported as “**** (an EC1.5x≤0.3 μM is indicated by four stars (****))” and the “maximum fold (Fold) increase” value [2] is reported as “***** (a fold increase >1.65 is indicated by five stars (*****))”. For the same compound, the melting point was 226 to 228 °C.

With `CCN1CC=C(c2ccc3nc(-c4ccc5nn(C)cc5c4)cc(=O)n3c2)CC1` [Compound 477, 7-(1-ethyl-1,2,3,6-tetrahydropyridin-4-yl)-2-(2-methyl-2H-indazol-5-yl)-4H-pyrido[1,2-a]pyrimidin-4-one] the EC (1.5-fold increase) [1] was under 0.1 µM, the “EC1.5x for Smn protein expression” value [2] was “**** (an EC1.5x≤0.3 μM is indicated by four stars (****))” and the “maximum fold (Fold) increase” value [2] was “**** (a fold increase between >1.5 and ≤1.65 is indicated by four stars (****))”. The melting point was 198 to 200 °C.

For `CCN1CCC(c2ccc3nc(-c4ccc5nc(C)cn5c4)cc(=O)n3c2)CC1` [Compound 478, 7-(1-ethylpiperidin-4-yl)-2-(2-methylimidazo[1,2-a]pyridin-6-yl)-4H-pyrido[1,2-a]pyrimidin-4-one], the EC (1.5-fold increase) [1] was under 0.1 µM, the “EC1.5x for Smn protein expression” value [2] was “**** (an EC1.5x≤0.3 μM is indicated by four stars (****))” and the “maximum fold (Fold) increase” value [2] was “***** (a fold increase >1.65 is indicated by five stars (*****))”. It also gave a melting point of 190 to 192 °C.
